{"source": "ChEMBL document CHEMBL1201862", "about": "“PubChem BioAssay data set” (2004)", "format_in_all_cases": "functional", "key": {"[1]": {"molecular_target": "Tyrosine-protein kinase ABL1 (Homo sapiens, UniProt P00519)"}, "[2]": {"molecular_target": "Tyrosine-protein kinase Blk (Homo sapiens, UniProt P51451)"}, "[3]": {"molecular_target": "Tyrosine-protein kinase Fyn (Homo sapiens, UniProt P06241)"}, "[4]": {"molecular_target": "Mast/stem cell growth factor receptor Kit (Homo sapiens, UniProt P10721)"}, "[5]": {"molecular_target": "Receptor-type tyrosine-protein kinase FLT3 (Homo sapiens, UniProt P36888)"}, "[6]": {"molecular_target": "Macrophage colony-stimulating factor 1 receptor (Homo sapiens, UniProt P07333)", "sequence (P07333 whole entry)": "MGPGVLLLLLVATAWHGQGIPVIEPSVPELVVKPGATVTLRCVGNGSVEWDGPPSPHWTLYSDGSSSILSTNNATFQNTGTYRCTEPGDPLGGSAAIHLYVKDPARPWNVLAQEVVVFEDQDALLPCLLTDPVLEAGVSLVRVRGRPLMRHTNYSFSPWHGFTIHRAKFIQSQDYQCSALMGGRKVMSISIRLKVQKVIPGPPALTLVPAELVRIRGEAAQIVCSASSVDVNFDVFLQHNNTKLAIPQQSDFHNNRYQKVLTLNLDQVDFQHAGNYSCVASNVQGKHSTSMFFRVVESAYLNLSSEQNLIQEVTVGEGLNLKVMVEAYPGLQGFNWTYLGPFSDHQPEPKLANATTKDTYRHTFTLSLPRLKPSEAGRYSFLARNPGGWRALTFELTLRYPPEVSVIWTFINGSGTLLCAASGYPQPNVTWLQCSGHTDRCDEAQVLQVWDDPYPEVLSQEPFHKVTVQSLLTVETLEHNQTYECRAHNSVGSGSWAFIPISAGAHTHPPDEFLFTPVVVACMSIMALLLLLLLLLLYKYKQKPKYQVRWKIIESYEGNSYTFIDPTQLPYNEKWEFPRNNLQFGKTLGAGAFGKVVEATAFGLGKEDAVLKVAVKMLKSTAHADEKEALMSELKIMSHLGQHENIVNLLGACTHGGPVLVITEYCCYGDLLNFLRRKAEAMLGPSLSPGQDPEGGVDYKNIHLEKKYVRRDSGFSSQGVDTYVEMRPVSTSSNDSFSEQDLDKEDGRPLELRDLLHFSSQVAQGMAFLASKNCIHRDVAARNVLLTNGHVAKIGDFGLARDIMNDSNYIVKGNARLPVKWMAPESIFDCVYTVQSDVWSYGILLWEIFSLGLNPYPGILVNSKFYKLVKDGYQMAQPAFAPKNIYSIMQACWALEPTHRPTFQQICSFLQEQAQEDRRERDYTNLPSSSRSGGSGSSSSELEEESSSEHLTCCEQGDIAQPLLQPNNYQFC"}, "[7]": {"molecular_target": "Vascular endothelial growth factor receptor 3 (Homo sapiens, UniProt P35916)"}, "[8]": {"molecular_target": "Vascular endothelial growth factor receptor 1 (Homo sapiens, UniProt P17948)"}, "[9]": {"molecular_target": "Tyrosine-protein kinase Lyn (Homo sapiens, UniProt P07948)"}, "[10]": {"molecular_target": "Vascular endothelial growth factor receptor 2 (Homo sapiens, UniProt P35968)"}, "[11]": {"molecular_target": "Proto-oncogene tyrosine-protein kinase Src (Homo sapiens, UniProt P12931)"}, "[12]": {"molecular_target": "Tyrosine-protein kinase Lck (Homo sapiens, UniProt P06239)"}, "[13]": {"molecular_target": "Protein kinase C zeta type (Homo sapiens, UniProt Q05513)"}, "[14]": {"molecular_target": "Serine/threonine-protein kinase pim-1 (Homo sapiens, UniProt P11309)"}, "[15]": {"molecular_target": "Calcium/calmodulin-dependent protein kinase type 1 (Homo sapiens, UniProt Q14012)"}, "[16]": {"molecular_target": "Protein kinase C gamma type (Homo sapiens, UniProt P05129)"}, "[17]": {"molecular_target": "Serine/threonine-protein kinase MRCK alpha (Homo sapiens, UniProt Q5VT25)", "sequence (Q5VT25 whole entry)": "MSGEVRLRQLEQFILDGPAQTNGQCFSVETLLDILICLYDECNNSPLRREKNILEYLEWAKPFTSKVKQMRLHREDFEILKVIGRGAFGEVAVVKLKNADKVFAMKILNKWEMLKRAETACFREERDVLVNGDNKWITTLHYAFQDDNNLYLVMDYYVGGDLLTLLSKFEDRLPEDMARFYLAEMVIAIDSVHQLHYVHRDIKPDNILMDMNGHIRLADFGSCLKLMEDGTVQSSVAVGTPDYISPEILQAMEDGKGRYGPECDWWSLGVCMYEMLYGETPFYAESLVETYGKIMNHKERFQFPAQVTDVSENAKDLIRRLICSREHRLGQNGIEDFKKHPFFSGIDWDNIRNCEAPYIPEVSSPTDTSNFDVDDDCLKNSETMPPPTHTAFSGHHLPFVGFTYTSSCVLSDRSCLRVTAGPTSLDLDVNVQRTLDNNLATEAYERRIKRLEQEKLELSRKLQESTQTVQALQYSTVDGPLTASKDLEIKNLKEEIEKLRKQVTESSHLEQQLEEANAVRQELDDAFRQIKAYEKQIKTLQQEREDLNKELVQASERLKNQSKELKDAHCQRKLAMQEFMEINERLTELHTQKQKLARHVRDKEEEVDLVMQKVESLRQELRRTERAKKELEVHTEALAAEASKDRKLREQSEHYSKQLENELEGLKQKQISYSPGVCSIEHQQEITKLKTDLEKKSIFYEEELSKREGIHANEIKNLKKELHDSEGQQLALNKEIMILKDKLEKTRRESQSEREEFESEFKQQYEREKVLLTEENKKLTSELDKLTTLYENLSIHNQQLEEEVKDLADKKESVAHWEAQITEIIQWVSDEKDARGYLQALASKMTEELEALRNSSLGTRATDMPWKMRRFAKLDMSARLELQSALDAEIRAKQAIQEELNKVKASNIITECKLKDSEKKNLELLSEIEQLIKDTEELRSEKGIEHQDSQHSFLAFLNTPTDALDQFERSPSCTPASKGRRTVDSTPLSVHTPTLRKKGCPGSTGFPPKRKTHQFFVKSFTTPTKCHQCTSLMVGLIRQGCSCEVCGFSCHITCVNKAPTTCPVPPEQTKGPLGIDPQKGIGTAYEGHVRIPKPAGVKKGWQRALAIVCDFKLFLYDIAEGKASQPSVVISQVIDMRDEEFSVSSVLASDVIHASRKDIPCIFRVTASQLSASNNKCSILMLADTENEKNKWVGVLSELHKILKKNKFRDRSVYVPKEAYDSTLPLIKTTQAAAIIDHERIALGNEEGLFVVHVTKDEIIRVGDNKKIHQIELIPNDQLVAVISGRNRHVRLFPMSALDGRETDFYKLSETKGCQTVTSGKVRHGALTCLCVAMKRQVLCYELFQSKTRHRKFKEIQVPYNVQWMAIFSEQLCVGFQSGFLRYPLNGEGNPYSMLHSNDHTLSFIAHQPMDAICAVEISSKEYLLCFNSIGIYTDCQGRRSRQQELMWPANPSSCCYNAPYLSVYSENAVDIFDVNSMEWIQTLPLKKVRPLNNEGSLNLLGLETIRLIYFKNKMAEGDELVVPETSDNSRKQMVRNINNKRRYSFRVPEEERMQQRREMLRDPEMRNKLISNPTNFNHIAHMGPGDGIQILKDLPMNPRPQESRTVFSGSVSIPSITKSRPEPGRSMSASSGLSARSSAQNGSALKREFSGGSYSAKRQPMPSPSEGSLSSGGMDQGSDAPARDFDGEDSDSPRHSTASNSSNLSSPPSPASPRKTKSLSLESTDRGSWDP"}, "[18]": {"molecular_target": "Serine/threonine-protein kinase PAK 1 (Homo sapiens, UniProt Q13153)", "sequence (Q13153 whole entry)": "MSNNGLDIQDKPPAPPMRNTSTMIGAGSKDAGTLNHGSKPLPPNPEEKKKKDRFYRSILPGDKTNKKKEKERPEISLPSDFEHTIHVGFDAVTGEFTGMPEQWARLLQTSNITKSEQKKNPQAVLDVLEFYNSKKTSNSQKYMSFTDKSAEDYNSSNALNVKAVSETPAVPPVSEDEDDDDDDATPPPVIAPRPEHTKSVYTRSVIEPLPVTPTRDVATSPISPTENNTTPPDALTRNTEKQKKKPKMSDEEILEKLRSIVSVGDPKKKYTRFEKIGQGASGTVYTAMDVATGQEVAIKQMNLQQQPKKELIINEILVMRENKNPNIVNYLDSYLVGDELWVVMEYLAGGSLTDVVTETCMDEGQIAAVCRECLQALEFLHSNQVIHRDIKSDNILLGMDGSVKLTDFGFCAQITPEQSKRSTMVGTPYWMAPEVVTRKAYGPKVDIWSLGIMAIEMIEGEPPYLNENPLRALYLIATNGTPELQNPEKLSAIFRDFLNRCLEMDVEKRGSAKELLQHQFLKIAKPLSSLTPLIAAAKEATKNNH"}, "[19]": {"molecular_target": "Protein kinase C delta type (Homo sapiens, UniProt Q05655)", "sequence (Q05655 whole entry)": "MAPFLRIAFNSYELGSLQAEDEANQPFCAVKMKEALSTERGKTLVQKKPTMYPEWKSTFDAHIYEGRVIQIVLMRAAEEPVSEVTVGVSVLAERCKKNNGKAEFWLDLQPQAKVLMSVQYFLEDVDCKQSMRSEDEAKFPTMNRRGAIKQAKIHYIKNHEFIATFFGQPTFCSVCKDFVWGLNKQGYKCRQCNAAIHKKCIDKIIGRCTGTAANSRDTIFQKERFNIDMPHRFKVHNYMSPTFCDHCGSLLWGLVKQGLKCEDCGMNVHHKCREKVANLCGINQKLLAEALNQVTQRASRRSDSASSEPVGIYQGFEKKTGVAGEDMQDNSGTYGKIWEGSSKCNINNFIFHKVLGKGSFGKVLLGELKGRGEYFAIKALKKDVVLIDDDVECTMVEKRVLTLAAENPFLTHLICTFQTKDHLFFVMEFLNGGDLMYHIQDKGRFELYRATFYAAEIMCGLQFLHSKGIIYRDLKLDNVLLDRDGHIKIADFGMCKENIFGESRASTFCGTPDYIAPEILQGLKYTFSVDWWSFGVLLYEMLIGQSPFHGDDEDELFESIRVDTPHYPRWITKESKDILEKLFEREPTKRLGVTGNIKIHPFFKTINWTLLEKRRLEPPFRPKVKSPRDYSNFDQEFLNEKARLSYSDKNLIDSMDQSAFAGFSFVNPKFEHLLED"}, "[20]": {"molecular_target": "Melanin-concentrating hormone receptor 1 (Homo sapiens, UniProt Q99705)", "sequence (Q99705 whole entry)": "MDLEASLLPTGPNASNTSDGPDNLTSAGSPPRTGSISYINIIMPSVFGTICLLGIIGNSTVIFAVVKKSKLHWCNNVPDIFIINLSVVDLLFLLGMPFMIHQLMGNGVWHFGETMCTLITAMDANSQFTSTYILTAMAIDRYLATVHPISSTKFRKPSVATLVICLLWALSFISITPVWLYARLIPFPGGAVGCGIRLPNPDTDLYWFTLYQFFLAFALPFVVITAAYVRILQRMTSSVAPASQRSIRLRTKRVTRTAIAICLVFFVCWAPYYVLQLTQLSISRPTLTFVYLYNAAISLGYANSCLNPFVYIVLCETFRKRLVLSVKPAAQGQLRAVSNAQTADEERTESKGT", "test": "Late-stage fluorescence-based counterscreen for antagonists of the G-protein coupled receptor 7 (GPR7): cell-based dose response assay to identify antagonists of the melanin-concentrating hormone receptor 1 (MCHR1) Set 5."}, "[21]": {"molecular_target": "T1, Neuropeptides B/W receptor type 1 (Homo sapiens, UniProt P48145)", "T1 sequence (P48145 whole entry)": "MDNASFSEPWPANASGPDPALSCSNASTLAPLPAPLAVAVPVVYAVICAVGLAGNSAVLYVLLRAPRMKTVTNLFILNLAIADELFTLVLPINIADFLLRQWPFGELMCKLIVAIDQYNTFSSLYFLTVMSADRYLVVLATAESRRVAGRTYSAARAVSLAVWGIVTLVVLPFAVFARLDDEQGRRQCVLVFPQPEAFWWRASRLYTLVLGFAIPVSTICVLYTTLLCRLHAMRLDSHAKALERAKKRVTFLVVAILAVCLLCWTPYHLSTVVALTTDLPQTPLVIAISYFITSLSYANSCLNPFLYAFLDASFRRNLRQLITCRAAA", "test": "human NPBW1 receptor blockade, IC50 – cell-based, fluorescence, dose response, set 5, late-stage follow-up (AID 588566)"}, "[22]": {"test": "A Cell Based Secondary Assay to Explore Cytotoxicity in HepG2 Cells of Compounds that Modulate Mycobacterium tuberculosis in Media Containing Glycerol versus Media without Glycerol (2)."}, "[23]": {"test": "THP-1 cell cytotoxicity, cytotoxicity control, set 4 (AID 504911)", "conditions": "Mycobacterium tuberculosis"}, "[24]": {"test": "Vero cell cytotoxicity, dose response, cytotoxicity control for M. tuberculosis growth inhibitor project, Vero cells, purified and synthesized compounds, set 5 (AID 504909)", "conditions": "Mycobacterium tuberculosis"}, "[25]": {"test": "HepG2 cell cytotoxicity, cytotoxicity control, set 4 (AID 504910)", "conditions": "Mycobacterium tuberculosis"}, "[26]": {"test": "THP-1 cell cytotoxicity, dose response, cytotoxicity control, set 3 (AID 504852)", "conditions": "Mycobacterium tuberculosis"}, "[27]": {"test": "Vero cell cytotoxicity, dose response, cytotoxicity control for M. tuberculosis growth inhibitor project, Vero cells, purified and synthesized compounds, set 4 (AID 504854)", "conditions": "Mycobacterium tuberculosis"}, "[28]": {"test": "HepG2 cell cytotoxicity, dose response, cytotoxicity control, set 3 (AID 504853)", "conditions": "Mycobacterium tuberculosis"}, "[29]": {"test": "microbe, parasite or virus in culture", "conditions": "Mycobacterium tuberculosis"}, "[30]": {"test": "A Cell Based Secondary Assay to Explore Cytotoxicity in THP-1 Cells of Compounds that Modulate Mycobacterium tuberculosis in Media Containing Glycerol versus Media without Glycerol (2)."}, "[31]": {"test": "Vero cell cytotoxicity, cytotoxicity control for M. tuberculosis inhibitor project, purified and synthesized samples, set 3 (AID 504684)", "conditions": "[…]"}, "[32]": {"molecular_target": "Casein kinase I isoform alpha (Homo sapiens, UniProt P48729)", "sequence (P48729 whole entry, canonical isoform)": "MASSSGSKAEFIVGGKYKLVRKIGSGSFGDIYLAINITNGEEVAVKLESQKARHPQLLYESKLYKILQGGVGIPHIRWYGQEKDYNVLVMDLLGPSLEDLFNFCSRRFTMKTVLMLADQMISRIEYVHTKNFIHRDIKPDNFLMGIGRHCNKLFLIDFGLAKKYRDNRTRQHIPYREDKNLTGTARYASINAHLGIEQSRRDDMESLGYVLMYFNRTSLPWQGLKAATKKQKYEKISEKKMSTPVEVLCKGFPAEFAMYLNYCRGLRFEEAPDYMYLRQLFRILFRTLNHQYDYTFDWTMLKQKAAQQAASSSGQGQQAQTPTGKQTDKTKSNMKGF"}, "[33]": {"molecular_target": "Dual specificity protein kinase CLK4 (Homo sapiens, UniProt Q9HAZ1)"}, "[34]": {"molecular_target": "Dual specificity tyrosine-phosphorylation-regulated kinase 1B (Homo sapiens, UniProt Q9Y463)", "test": "Navigating the Kinome. Panel member name: DYRK1B"}, "[35]": {"molecular_target": "LIM domain kinase 1 (Homo sapiens, UniProt P53667)", "test": "Navigating the Kinome. Panel member name: LIMK1"}, "[36]": {"molecular_target": "Activated CDC42 kinase 1 (Homo sapiens, UniProt Q07912)", "test": "Navigating the Kinome. Panel member name: ACK1"}, "[37]": {"molecular_target": "Rho-associated protein kinase 1 (Homo sapiens, UniProt Q13464)"}, "[38]": {"molecular_target": "Death-associated protein kinase 3 (Homo sapiens, UniProt O43293)", "sequence (O43293 whole entry)": "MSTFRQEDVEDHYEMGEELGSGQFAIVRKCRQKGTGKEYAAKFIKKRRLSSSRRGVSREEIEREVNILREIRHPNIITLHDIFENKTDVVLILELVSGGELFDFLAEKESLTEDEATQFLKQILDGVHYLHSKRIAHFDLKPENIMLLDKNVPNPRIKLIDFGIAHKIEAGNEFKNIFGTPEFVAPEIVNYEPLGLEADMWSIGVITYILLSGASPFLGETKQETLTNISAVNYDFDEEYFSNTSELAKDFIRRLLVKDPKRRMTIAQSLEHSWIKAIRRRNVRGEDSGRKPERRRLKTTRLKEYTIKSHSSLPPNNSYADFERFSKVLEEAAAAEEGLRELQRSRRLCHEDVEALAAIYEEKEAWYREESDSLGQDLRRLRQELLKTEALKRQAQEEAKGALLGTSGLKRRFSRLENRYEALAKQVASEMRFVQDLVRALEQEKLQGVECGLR"}}, "note": "The source made the active and inactive calls."}
{"smiles": "Cc1ccc(F)c(NC(=O)Nc2ccc(-c3cccc4[nH]nc(N)c34)c(F)c2)c1", "values": [{"measurement": "Ki", "setting": "[1]", "result": "> 0.631 µM (inactive)"}, {"measurement": "Ki", "setting": "[2]", "result": "0.251 µM (active)"}, {"measurement": "Ki", "setting": "[3]", "result": "0.158 µM (active)"}, {"measurement": "Ki", "setting": "[4]", "result": "0.002 µM (active)"}, {"measurement": "Ki", "setting": "[5]", "result": "0.00316 µM (active)"}, {"measurement": "Ki", "setting": "[6]", "result": "0.00316 µM (active)"}, {"measurement": "Ki", "setting": "[7]", "result": "0.00398 µM (active)"}, {"measurement": "Ki", "setting": "[8]", "result": "0.001 µM (active)"}, {"measurement": "Ki", "setting": "[9]", "result": "0.316 µM (active)"}, {"measurement": "Ki", "setting": "[10]", "result": "0.0126 µM (active)"}, {"measurement": "Ki", "setting": "[11]", "result": "0.501 µM (active)"}, {"measurement": "Ki", "setting": "[12]", "result": "0.501 µM (active)"}]}
{"smiles": "CC(C)c1ccc2c(c1)c(SC(C)(C)C)c(CC(C)(C)CNCCCO)n2Cc1ccc(Cl)cc1", "values": [{"measurement": "Ki", "setting": "[13]", "result": "7.94 µM (active)"}, {"measurement": "Ki", "setting": "[14]", "result": "5.01 µM (active)"}, {"measurement": "Ki", "setting": "[15]", "result": "7.94 µM (active)"}, {"measurement": "Ki", "setting": "[16]", "result": "3.98 µM (active)"}, {"measurement": "Ki", "setting": "[17]", "result": "6.31 µM (active)"}, {"measurement": "Ki", "setting": "[18]", "result": "2 µM (active)"}, {"measurement": "Ki", "setting": "[19]", "result": "2.51 µM (active)"}]}
{"smiles": "O=c1c(Oc2ccc(Cl)c(Cl)c2)c(Cl)cnn1Cc1cccc2ccccc12", "values": [{"measurement": "IC50", "setting": "[20]", "result": "> 20 µM (inactive)"}, {"measurement": "IC50", "setting": "[21]", "result": "> 20 µM (inactive)"}]}
{"smiles": "CCOc1ccc(-c2cc(C)[n+](CCc3ccc(OC)c(OC)c3)c(-c3ccc(OCC)cc3)c2)cc1.[O-][Cl+3]([O-])([O-])[O-]", "values": [{"measurement": "CC50", "setting": "[22]", "result": "9.14 µM (active)"}, {"measurement": "CC50", "setting": "[23]", "result": "1.3 µM (active)"}, {"measurement": "CC50", "setting": "[24]", "result": "19.7 µM (active)"}, {"measurement": "CC50", "setting": "[25]", "result": "11.9 µM (active)"}, {"measurement": "CC50", "setting": "[26]", "result": "1.7 µM (active)"}, {"measurement": "CC50", "setting": "[27]", "result": "21 µM (active)"}, {"measurement": "CC50", "setting": "[28]", "result": "13.1 µM (active)"}, {"measurement": "CC50", "setting": "[29]", "result": "> 40 µM (active)"}, {"measurement": "CC50", "setting": "[30]", "result": "2.28 µM (active)"}, {"measurement": "CC50", "setting": "[31]", "result": "18.2 µM (active)"}]}
{"smiles": "Cn1c(N)nc2sc(C(N)=O)cc21", "values": [{"measurement": "Ki", "setting": "[32]", "result": "12.6 µM (active)"}, {"measurement": "Ki", "setting": "[33]", "result": "25.1 µM (active)"}, {"measurement": "Ki", "setting": "[34]", "result": "79.4 µM (active)"}, {"measurement": "Ki", "setting": "[35]", "result": "79.4 µM (active)"}, {"measurement": "Ki", "setting": "[36]", "result": "79.4 µM (active)"}, {"measurement": "Ki", "setting": "[37]", "result": "39.8 µM (active)"}, {"measurement": "Ki", "setting": "[38]", "result": "10 µM (active)"}]}
